Experimental data published in PMC11602716 (Nature, 2024).

How the values were obtained:
mice = assay: Saccharin-conditioned taste avoidance; type: in vivo, mouse; conditions: 0.15% saccharin, s.c. 325 nmol kg^−1 EB1002 or 10 nmol kg^−1 semaglutide, n = 10 per group
NK1R, NK2R and NK3R = conditions: cited from earlier work
humans = conditions: cited from earlier work

Molecule	average weight loss (humans)	other results
CC[C@H](C)[C@H](NC(=O)[C@H](Cc1ccccc1)NC(=O)[C@H](CCC(=O)O)NC(=O)[C@H](CCCCNC(=O)COCCOCCNC(=O)COCCOCCNC(=O)CC[C@H](NC(=O)CCCCCCCCCCCCCCCCC(=O)O)C(=O)O)NC(=O)[C@H](C)NC(=O)[C@H](C)NC(=O)[C@H](CCC(N)=O)NC(=O)CNC(=O)[C@H](CCC(=O)O)NC(=O)[C@H](CC(C)C)NC(=O)[C@H](Cc1ccc(O)cc1)NC(=O)[C@H](CO)NC(=O)[C@H](CO)NC(=O)[C@@H](NC(=O)[C@H](CC(=O)O)NC(=O)[C@H](CO)NC(=O)[C@@H](NC(=O)[C@H](Cc1ccccc1)NC(=O)[C@@H](NC(=O)CNC(=O)[C@H](CCC(=O)O)NC(=O)C(C)(C)NC(=O)[C@@H](N)Cc1cnc[nH]1)[C@@H](C)O)[C@@H](C)O)C(C)C)C(=O)N[C@@H](C)C(=O)N[C@@H](Cc1c[nH]c2ccccc12)C(=O)N[C@@H](CC(C)C)C(=O)N[C@H](C(=O)N[C@@H](CCCNC(=N)N)C(=O)NCC(=O)N[C@@H](CCCNC(=N)N)C(=O)NCC(=O)O)C(C)C [semaglutide]	–	conditioned taste avoidance (mice): aversive
neurokinin A (4–10)-S5K/L9mL/M10Nle	–	NK2R selectivity (NK1R, NK2R and NK3R): some degree of selectivity
retatrutide	up to 22.1%	–
survodutide	up to 14.9%	–
